# Assay results published in US10835542B2, “9-aminomethyl minocycline compounds and use thereof in treating community-acquired bacterial pneumonia (CABP)” (Paratek Pharmaceuticals, Inc., priority 2016, dated 2020).
# Values joined by “and” are separate entries in the source; they are usually repeats but may differ in a detail not shown here. Identical values can stand only once. Like-named read-outs stand apart in the source and are kept apart here.
# What was measured:
# baseline pathogen = type: in vivo, human; conditions: PTE, microITT
# [1] = Safety and tolerability in the food effect study; type: in vivo, human
# Experimental: Safety and tolerability was assessed by: Adverse events (AEs); vital sign measurements at multiple time-points within 24 hours post-dose in each treatment period; and clinical laboratory tests 24 hours post-dose in each treatment period.
# cSSSI = test: Phase 2 and Phase 3 studies in complicated skin and skin structure infection (cSSSI); type: in vivo, human
# [2] = test system: Haemophilus parainfluenzae; test: Clinical success at PTE by baseline pathogen, microITT; type: in vivo, human; conditions: N1 = 18 (Compound 1), 17 (Moxifloxacin)
# Streptococcus pneumoniae = type: in vivo, human; conditions: PTE, microITT
# [3] = Phase 1 multiple oral dose (300, 450, 600 mg) study: plasma PK, healthy adult subjects; conditions: for exposure (dose-normalized AUC0-24) as % of that predicted if perfectly dose-proportional: 300 mg to 600 mg; for AUC(0-t): human, in vivo, po
# [4] = test system: Community-Acquired Bacterial Pneumonia (CABP); test: Phase 3 CABP study: Early Clinical Response (72-120 h after first dose); type: in vivo, human; conditions: ITT
# Moraxella catarrhalis = test: Clinical success at PTE by baseline pathogen, microITT; type: in vivo, human; conditions: N1 = 4 (Compound 1), 1 (Moxifloxacin)
# Escherichia coli = test: as above; type: in vivo, human; conditions: N1 = 6 (Compound 1), 7 (Moxifloxacin)
# [5] = Food effect on plasma PK of a single 300 mg oral dose, healthy volunteers (4-period crossover); type: in vivo, human
structure (smiles),measurement,setting,value
"CN(C)c1cc(CNCC(C)(C)C)c(O)c2c1C[C@H]1C[C@H]3[C@H](N(C)C)C(O)=C(C(N)=O)C(=O)[C@@]3(O)C(O)=C1C2=O [Compound 1, 9-[(2,2-dimethyl-propylamino)-methyl]-minocycline]",Clinical Success n (%),"baseline pathogen; baseline pathogen Acinetobacter baumanii complex, N1 = 0 (Compound 1), 1 (Moxifloxacin)",0 n (%)
same,Clinical Success n (%),"baseline pathogen; baseline pathogen Acinetobacter baumanii, N1 = 0 (Compound 1), 1 (Moxifloxacin)",0 n (%)
same,Clinical Success n (%),"baseline pathogen; baseline pathogen Acinetobacter junii, N1 = 1 (Compound 1), 0 (Moxifloxacin)",1 (100.0) n (%)
same,Clinical Success n (%),"baseline pathogen; baseline pathogen Acinetobacter lwoffii, N1 = 1 (Compound 1), 0 (Moxifloxacin)",1 (100.0) n (%)
same,Clinical Success n (%),"baseline pathogen; baseline pathogen Citrobacter braakii, N1 = 0 (Compound 1), 1 (Moxifloxacin)",0 n (%)
same,Clinical Success n (%),"baseline pathogen; baseline pathogen Citrobacter freundii, N1 = 0 (Compound 1), 1 (Moxifloxacin)",0 n (%)
same,Clinical Success n (%),"baseline pathogen; baseline pathogen Enterobacter cloacae, N1 = 2 (Compound 1), 4 (Moxifloxacin)",2 (100.0) n (%)
same,Clinical Success n (%),"baseline pathogen; baseline pathogen Haemophilus haemolyticus, N1 = 1 (Compound 1), 0 (Moxifloxacin)",1 (100.0) n (%)
same,Clinical Success n (%),"baseline pathogen; baseline pathogen Haemophilus parahaemolyticus, N1 = 2 (Compound 1), 2 (Moxifloxacin)",2 (100.0) n (%)
same,Clinical Success n (%),"baseline pathogen; baseline pathogen Klebsiella oxytoca, N1 = 1 (Compound 1), 4 (Moxifloxacin)",0 n (%)
same,Clinical Success n (%),"baseline pathogen; baseline pathogen Morganella morganii, N1 = 1 (Compound 1), 0 (Moxifloxacin)",1 (100.0) n (%)
same,Clinical Success n (%),"baseline pathogen; baseline pathogen Neisseria meningitidis, N1 = 1 (Compound 1), 1 (Moxifloxacin)",1 (100.0) n (%)
same,Clinical Success n (%),"baseline pathogen; baseline pathogen Prevotella oris, N1 = 0 (Compound 1), 1 (Moxifloxacin)",0 n (%)
same,Clinical Success n (%),"baseline pathogen; baseline pathogen Proteus mirabilis, N1 = 2 (Compound 1), 2 (Moxifloxacin)",1 (50.0) n (%)
same,Clinical Success n (%),"baseline pathogen; baseline pathogen Pseudomonas aeruginosa, N1 = 3 (Compound 1), 5 (Moxifloxacin)",2 (66.7) n (%)
same,Clinical Success n (%),"baseline pathogen; baseline pathogen Pseudomonas putida, N1 = 0 (Compound 1), 1 (Moxifloxacin)",0 n (%)
same,Clinical Success n (%),"baseline pathogen; baseline pathogen Serratia marcescens, N1 = 1 (Compound 1), 0 (Moxifloxacin)",1 (100.0) n (%)
same,Clinical Success n (%),"baseline pathogen; baseline pathogen Stenotrophomonas maltophilia, N1 = 0 (Compound 1), 2 (Moxifloxacin)",0 n (%)
same,Clinical Success n (%),"baseline pathogen; baseline pathogen Streptococcus agalactiae, N1 = 2 (Compound 1), 3 (Moxifloxacin)",2 (100.0) n (%)
same,Clinical Success n (%),"baseline pathogen; baseline pathogen Streptococcus anginosus, N1 = 0 (Compound 1), 1 (Moxifloxacin)",0 n (%)
same,Clinical Success n (%),"baseline pathogen; baseline pathogen Streptococcus constellatus, N1 = 1 (Compound 1), 1 (Moxifloxacin)",1 (100.0) n (%)
same,Clinical Success n (%),"baseline pathogen; baseline pathogen Streptococcus gordonii, N1 = 0 (Compound 1), 1 (Moxifloxacin)",0 n (%)
same,Clinical Success n (%),"baseline pathogen; baseline pathogen Streptococcus mitis group, N1 = 1 (Compound 1), 2 (Moxifloxacin)",1 (100.0) n (%)
same,Clinical Success n (%),"baseline pathogen; baseline pathogen Streptococcus mitis, N1 = 3 (Compound 1), 5 (Moxifloxacin)",3 (100.0) n (%)
same,Clinical Success n (%),"baseline pathogen; baseline pathogen Streptococcus oralis, N1 = 1 (Compound 1), 0 (Moxifloxacin)",1 (100.0) n (%)
same,Clinical Success n (%),"baseline pathogen; baseline pathogen Streptococcus parasanguinis, N1 = 0 (Compound 1), 2 (Moxifloxacin)",0 n (%)
same,Clinical Success n (%),"baseline pathogen; baseline pathogen Streptococcus salivarius, N1 = 1 (Compound 1), 3 (Moxifloxacin)",1 (100.0) n (%)
same,Clinical Success n (%),"baseline pathogen; baseline pathogen Streptococcus sanguinis, N1 = 0 (Compound 1), 2 (Moxifloxacin)",0 n (%)
same,tolerability of a single oral dose,[1]; 300 mg oral,well tolerated
same,subjects with treatment emergent AEs,"[1]; 32 subjects, nausea, somnolence, mild, unrelated to study drug",two
same,median change from baseline in heart rate,"[1]; all other treatment groups, all measured time points",≤ 3 bpm
same,serious AE (SAE),[1]; single 300 mg oral dose,no subject experienced a serious AE
same,treatment-related adverse events or clinically relevant changes in laboratory values or vital signs,[1]; single 300 mg oral dose,No treatment-related adverse events
same,tolerability in cSSSI studies,cSSSI; Phase 2 (219 subjects) and terminated Phase 3 (143 subjects),well-tolerated
same,efficacy in cSSSI studies,cSSSI; versus comparator linezolid,efficacy similar to an established comparator (linezolid)
same,Clinical Success n (%),[2],15 (83.3) n (%)
same,Clinical Success n (%),"Streptococcus pneumoniae; Streptococcus pneumoniae MDRSP, N1 = 7 (Compound 1), 6 (Moxifloxacin)",7 (100.0) n (%)
same,Clinical Success n (%),"Streptococcus pneumoniae; Streptococcus pneumoniae Macrolide Resistant, N1 = 10 (Compound 1), 5 (Moxifloxacin)",10 (100.0) n (%)
same,Clinical Success n (%),"Streptococcus pneumoniae; Streptococcus pneumoniae PSSP, N1 = 26 (Compound 1), 22 (Moxifloxacin)",23 (88.5) n (%)
same,Clinical Success n (%),"Streptococcus pneumoniae; baseline pathogen Streptococcus pneumoniae, N1 = 43 (Compound 1), 34 (Moxifloxacin)",37 (86.0) n (%)
same,exposure (dose-normalized AUC0-24) as % of that predicted if perfectly dose-proportional,[3]; Day 1,76%
same,exposure (dose-normalized AUC0-24) as % of that predicted if perfectly dose-proportional,[3]; Day 5,88%
same,Cmax/Dose Geometric LS Means,"[3]; Day 1, 300 mg",2.09 ng/mL/mg
same,Cmax/Dose Geometric LS Means,"[3]; Day 1, 450 mg",1.81 ng/mL/mg
same,Cmax/Dose Geometric LS Means,"[3]; Day 1, 600 mg",1.54 ng/mL/mg
same,Cmax/Dose Geometric LS Means,"[3]; Day 5, 300 mg",2.62 ng/mL/mg
same,Cmax/Dose Geometric LS Means,"[3]; Day 5, 450 mg",2.32 ng/mL/mg
same,Cmax/Dose Geometric LS Means,"[3]; Day 5, 600 mg",2.11 ng/mL/mg
same,systemic exposure on Day 5 higher than on Day 1,[3]; all tested dose levels,~50%
same,AUC(0-t),[3]; 300 mg,9270 ng·h/mL
same,AUC(0-t),[3]; 450 mg,8980 ng·h/mL
same,Total number of deaths,ITT population,8
same,"severity of gastrointestinal (GI) adverse events (vomiting, nausea, diarrhea, dyspepsia)",Phase 3 CABP,mild
same,Subjects who died,Safety population,8 (2.1) n (%)
same,Subjects with at least one Adverse Event (AE),Safety population,170 (44.5) n (%)
same,Subjects with at least one Drug-Related Serious TEAE,Safety population,2 (0.5) n (%)
same,Subjects with at least one Drug-Related TEAE,Safety population,39 (10.2) n (%)
same,Subjects with at least one Serious TEAE,Safety population,23 (6.0) n (%)
same,Subjects with at least one Serious TEAE Leading to Death,Safety population,8 (2.1) n (%)
same,Subjects with at least one Serious TEAE Leading to Premature Discontinuation of Test Article,Safety population,10 (2.6) n (%)
same,Subjects with at least one Severe TEAE,Safety population,25 (6.5) n (%)
same,Subjects with at least one TEAE,Safety population,157 (41.1) n (%)
same,Subjects with at least one TEAE Leading to Dose Interruption,Safety population,0 n (%)
same,Subjects with at least one TEAE Leading to Premature Discontinuation of Study,Safety population,7 (1.8) n (%)
same,Subjects with at least one TEAE Leading to Premature Discontinuation of Test Article,Safety population,21 (5.5) n (%)
same,TEAE leading to study drug discontinuation: Diarrhoea,Safety population,0 n (%)
same,TEAE leading to study drug discontinuation: Dyspepsia,Safety population,0 n (%)
same,TEAE leading to study drug discontinuation: Gastrointestinal Disorders,Safety population,2 (0.5) n (%)
same,TEAE leading to study drug discontinuation: Nausea,Safety population,1 (0.3) n (%)
same,TEAE leading to study drug discontinuation: Vomiting,Safety population,2 (0.5) n (%)
same,TEAE: Alanine Aminotransferase Increased,Safety population,14 (3.7) n (%)
same,TEAE: Aspartate Aminotransferase Increased,Safety population,8 (2.1) n (%)
same,TEAE: Clostridium Difficile Colitis,Safety population,0 n (%)
same,TEAE: Clostridium Difficile Infection,Safety population,0 n (%)
same,TEAE: Constipation,Safety population,9 (2.4) n (%)
same,TEAE: Diarrhoea,Safety population,4 (1.0) n (%)
same,TEAE: Dyspepsia,Safety population,4 (1.0) n (%)
same,TEAE: Gamma-Glutamyltransferase Increased,Safety population,10 (2.6) n (%)
same,TEAE: Headache,Safety population,8 (2.1) n (%)
same,TEAE: Hypertension,Safety population,13 (3.4) n (%)
same,TEAE: Insomnia,Safety population,10 (2.6) n (%)
same,TEAE: Nausea,Safety population,9 (2.4) n (%)
same,TEAE: Pseudomembranous Colitis,Safety population,0 n (%)
same,TEAE: Vomiting,Safety population,10 (2.6) n (%)
same,Total Number of AEs,Safety population,434
same,Total Number of TEAEs,Safety population,376
same,"Difference (95% CI) in Early Clinical Success rate, Compound 1 minus moxifloxacin",[4],"−1.6% and −1.6 (−7.1, 3.8) %"
same,Early Clinical Response: Clinical Failure,[4]; 72-120 h after first infusion,49 (12.7) n (%)
same,Early Clinical Response: Clinical Failure or Indeterminate,[4]; 72-120 h after first infusion,73 (18.9) n (%)
same,Early Clinical Response: Clinical Success,[4]; 72-120 h after first infusion,313 (81.1) n (%)
same,Early Clinical Response: Indeterminate,[4]; 72-120 h after first infusion,24 (6.2) n (%)
same,Clinical Success n (%),Moraxella catarrhalis,4 (100.0) n (%)
same,Clinical Success n (%),Escherichia coli,4 (66.7) n (%)
same,between-subject variability in systemic exposure (CV) for Cmax and AUC,[5]; Treatment D,42.6-44.4%
same,between-subject variability in systemic exposure (CV) for Cmax and AUC,"[5]; Treatments A, B and C",22.4-29.2%
